Measurements from PMC11258331 (Scientific Reports, 2024).
Marks after values point to notes of the source that are not given here.

Legend:
[1] = test system: platelet aggregation induced by collagen; assay: Collagen (5 μg/ml)-induced platelet aggregation, light transmission aggregometry; type: in vivo, human; details: drug alone (Treatment E or H)
Procedure: (§1) PD assessments were performed on Days 1 (≤ 24 h) and 5 (≤ 72 h) of each period (Supplementary Table 8); assessments included aPTT[18], FXIc[18], and bleeding time (assessed according to the PPD® Laboratories [Austin, TX] procedure where a blood pressure cuff, situated above the incision site, provided pressure at 40 mmHg and blood from the incision was wicked with filter paper every 30 s until cessation to record bleeding time). In addition, AA (1 mM), ADP) (20 µM)-, and collagen (5 μg/ml)-induced platelet aggregation assays were performed using light transmission aggregometry (PPD® Laboratories) and performed on Days 1 and 5 (≤ 24 h) for only Period 1.

[2] = test system: arachidonic acid (AA)-induced platelet aggregation; assay: AA (1 mM)-induced platelet aggregation, light transmission aggregometry; type: in vivo, human; details: drug alone (Treatment E or H)
Procedure: as §1

human carboxylesterase 1 = details: liver; cited from earlier work
[3] = test system: platelet aggregation induced by adenosine diphosphate (ADP); assay: ADP (20 µM)-induced platelet aggregation, light transmission aggregometry; type: in vivo, human; details: drug alone (Treatment E or H)
Procedure: as §1

[4] = Plasma pharmacokinetics (LC-MS/MS, noncompartmental; GMR by linear mixed-effects model); details: for Cmax: geometric mean (90% CI);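 for all read-outs here: participants at one US clinical research site, randomized 1:1:1 to a single study part, with 90% CIs from a mixed-effects model on log-transformed PK parameters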
Procedure: The study (ClinicalTrials.gov Identifier: NCT03698513) was conducted at 1 clinical research center in the United States. […] Participants underwent screening evaluations to determine eligibility within 35 days of study drug administration, and eligible participants were randomly assigned 1:1:1 to a single part of the study.
All statistical analyses and calculations were performed using SAS® software (SAS Institute, Inc., Cary, North Carolina; version 9.3). All safety and plasma PK/PD data were summarized using descriptive statistics. Descriptive summaries were presented for continuous variables using number of subjects (N), mean, SD; median, minimum, and maximum. […] CIs were constructed using a linear mixed-effects model with treatment as a fixed effect and measurements within participants as repeated measures fitted to the log-transformed PK parameters.

healthy participants = assay: Adverse events and bleeding-related AEs by treatment, phase I DDI study;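 note: counts from medical review of adverse event and bleeding-related adverse event reports, collected at selected times across the dosing interval, single US site, randomised 1:1:1 to one study part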
Procedure: Participants underwent screening evaluations to determine eligibility within 35 days of study drug administration, and eligible participants were randomly assigned 1:1:1 to a single part of the study.
Safety assessments were performed at selected times throughout the dosing interval (Supplementary Table 7). The assessments were based on medical review of AE and bleeding-related AE reports, and the results of vital sign measurements, ECG measurements, physical examinations, and clinical laboratory tests.

## COC(=O)[C@H](c1ccccc1Cl)N1CCc2sccc2C1 [Clopidogrel]
[1]
  Inhibition of collagen-induced aggregation compared with baseline: < 10%
[2]
  Inhibition of AA-induced aggregation compared with baseline: ~ 60%
Human carboxylesterase 1
  Share first-passed hydrolyzed to clopidogrel acid: ~ 85 % of absorbed drug
[3]
  Inhibition of ADP-induced aggregation compared with baseline: ~ 50%
[4]; Day 1, Treatment A vs Treatment C (aspirin and clopidogrel without milvexian)
  Reduction of Cmax: 14%
[4]; Day 1, Treatment F (with milvexian) vs Treatment E (clopidogrel alone)
  Reduction of Cmax: 9.1%
[4]; Day 1, plasma, Treatment F (milvexian + clopidogrel), Part 2
  Cmax, geometric mean (90% CI): 4.05 (3.09, 5.31) ng/mL
[4]; Day 5, plasma, Treatment C (placebo + aspirin + clopidogrel), Part 1
  Cmax, geometric mean [n] (90% CI): 1.15 (0.898, 1.46) ng/mL
[4]; human, plasma, oral, Day 1, plasma, Treatment A (milvexian + aspirin + clopidogrel), Part 1
  Cmax: 3.29 ng/mL
[4]; human, plasma, oral, Day 1, plasma, Treatment C (placebo + aspirin + clopidogrel), Part 1
  Cmax: 3.83 ng/mL
[4]; human, plasma, oral, Day 1, plasma, Treatment E (placebo + clopidogrel), Part 2
  Cmax: 4.45 ng/mL
[4]; human, plasma, oral, Mean T1/2, with (Treatment F) and without (Treatment E) milvexian, Days 1 and 5
  half-life: 1 to 2 h
[4]; human, plasma, oral, Median Tmax, Day 1, Treatments F and E
  Tmax: 1 to 1.5 h
[4]; human, plasma, oral, Median Tmax, Day 5, Treatments F and E
  Tmax: 0.5 to 1 h
[4]; human, plasma, oral, Tmax, median [n] (range), Day 5, plasma, Treatment C (placebo + aspirin + clopidogrel), Part 1
  Tmax: 0.5 h
Healthy participants; Part 2 (Treatments D-F)
  Anal fissure hemorrhage: 0 n (%)
  Contusion: 1 (2.8)^†† n (%)
  Deaths: 0 n (%)
  Discontinuations due to AEs: 1 (2.8)^‖ n (%)
  Epistaxis: 0 n (%)
  Gingival bleeding: 0 n (%)
  Serious AEs: 0 n (%)
  Total participants with an AE: 6 (16.7) n (%)
  Total participants with bleeding event(s): 1 (2.8) n (%)
  Vessel puncture site bruise: 0 n (%)
Healthy participants; bleeding AE
  Events of contusion reported by a single participant: 1 events
